According to ChEMBL document CHEMBL3217457, “Carbazolepyrrolo[2,1-c][1,4]benzodiazepine conjugates: design, synthesis, and biological evaluation” (Medchemcomm, 2011):

What was measured:
[1] = test system: SiHa; test: Growth inhibition of human SiHa cells; type: functional
[2] = test system: MCF7; test: Cell cycle arrest in human MCF7 cells assessed as accumulation at G1 phase at 4 uM after 24 hrs by propidium iodide staining based flow cytometry (reference value: 57.98%); type: functional
[3] = test system: ZR-75-1; test: Growth inhibition of human ZR-75-1 cells; type: functional
[4] = test system: COLO 205; test: Growth inhibition of human COLO205 cells; type: functional
[5] = test system: MCF7; test: Cell cycle arrest in human MCF7 cells assessed as accumulation at S phase at 4 uM after 24 hrs by propidium iodide staining based flow cytometry (reference value: 14.30%); type: functional
[6] = test system: MCF7; test: Cell cycle arrest in human MCF7 cells assessed as accumulation at G0/G1 phase at 4 uM after 24 hrs by propidium iodide staining based flow cytometry (reference value: 60.75%); type: functional
[7] = test system: PC-3; test: Growth inhibition of human PC3 cells; type: functional
[8] = test system: HOP-62; test: Growth inhibition of human HOP62 cells; type: functional
[9] = test system: MCF7; test: Cell cycle arrest in human MCF7 cells assessed as accumulation at G2/M phase at 4 uM after 24 hrs by propidium iodide staining based flow cytometry (reference value: 24.95%); type: functional
[10] = test system: MCF7; test: Growth inhibition of human MCF7 cells; type: functional
[11] = test system: A549; test: Growth inhibition of human A549 cells; type: functional
[12] = test system: MCF7; test: Cell cycle arrest in human MCF7 cells assessed as accumulation at G0 phase at 4 uM after 24 hrs by propidium iodide staining based flow cytometry (reference value: 2.77%); type: functional
[13] = test system: A2780; test: Growth inhibition of human A2780 cells; type: functional
[14] = test system: KB; test: Growth inhibition of human KB cells; type: functional
[15] = Growth inhibition of human Gurav cells; type: functional
[16] = test system: T47D; test: Growth inhibition of human T47D cells; type: functional
[17] = Growth inhibition of human MOLT4 cells; type: functional; conditions: MOLT-4
[18] = test system: Malme-3M; test: Growth inhibition of human MALME-3M cells; type: functional
[19] = Growth inhibition of human RXF393 cells; type: functional; conditions: RXF 393
[20] = Growth inhibition of human SF539 cells; type: functional; conditions: SF-539
[21] = Growth inhibition of human OVCAR5 cells; type: functional; conditions: OVCAR-5
[22] = test system: SK-OV-3; test: Growth inhibition of human SKOV3 cells; type: functional
[23] = test system: M14; test: Growth inhibition of human M14 cells; type: functional
[24] = Growth inhibition of human HCT15 cells; type: functional; conditions: HCT-15
[25] = Growth inhibition of human Hs 578T cells; type: functional
[26] = test system: SNB-75; test: Growth inhibition of human SNB75 cells; type: functional
[27] = Growth inhibition of human BT549 cells; type: functional; conditions: BT-549
[28] = test system: SR; test: Growth inhibition of human SR cells; type: functional
[29] = test system: SW-620; test: Growth inhibition of human SW620 cells; type: functional
[30] = test system: SNB-19; test: Growth inhibition of human SNB19 cells; type: functional
[31] = test system: TK-10; test: Growth inhibition of human TK10 cells; type: functional
[32] = Growth inhibition of human UO31 cells; type: functional; conditions: UO-31
[33] = test system: IGROV-1; test: Growth inhibition of human IGROV1 cells; type: functional
[34] = test system: Calf thymus DNA; test: Binding affinity to calf thymus DNA assessed as change in melting temperature at compound to DNA ratio of 1:5 after 18 hrs by thermal denaturation analysis; type: nucleic-acid assay; conditions: Bos taurus
[35] = Growth inhibition of human HCC2998 cells; type: functional; conditions: HCC 2998
[36] = test system: RPMI-8226; test: Growth inhibition of human RPMI8226 cells; type: functional
[37] = test system: SK-MEL-2; test: Growth inhibition of human SK-MEL-2 cells; type: functional
[38] = test system: 786-0; test: Growth inhibition of human 786-0 cells; type: functional
[39] = test system: NCI-H522; test: Growth inhibition of human NCI-H522 cells; type: functional
[40] = test system: HL-60(TB); test: Growth inhibition of human HL-60(TB) cells; type: functional
[41] = Growth inhibition of human OVCAR8 cells; type: functional; conditions: OVCAR-8
[42] = test system: MDA-MB-435; test: Growth inhibition of human MDA-MB-435 cells; type: functional
[43] = test system: SF-268; test: Growth inhibition of human SF268 cells; type: functional
[44] = test system: NCI-H23; test: Growth inhibition of human NCI-H23 cells; type: functional
[45] = test system: A498; test: Growth inhibition of human A498 cells; type: functional
[46] = Growth inhibition of human OVCAR4 cells; type: functional; conditions: OVCAR-4
[47] = test system: SK-MEL-5; test: Growth inhibition of human SK-MEL-5 cells; type: functional
[48] = Growth inhibition of human MDA-MB cells; type: functional
[49] = test system: SK-MEL-28; test: Growth inhibition of human SK-MEL-28 cells; type: functional
[50] = test system: CCRF-CEM; test: Growth inhibition of human CCRF-CEM cells; type: functional
[51] = test system: CAKI-1; test: Growth inhibition of human CAKI-1 cells; type: functional
[52] = test system: MDA-MB-468; test: Growth inhibition of human MDA-MB-468 cells; type: functional
[53] = Growth inhibition of human HOP92 cells; type: functional; conditions: HOP-92
[54] = test system: U-251; test: Growth inhibition of human U251 cells; type: functional
[55] = test system: DU-145; test: Growth inhibition of human DU145 cells; type: functional
[56] = test system: ACHN; test: Growth inhibition of human ACHN cells; type: functional
[57] = Growth inhibition of human UACC62 cells; type: functional; conditions: UACC-62
[58] = test system: KM12; test: Growth inhibition of human KM12 cells; type: functional
[59] = Growth inhibition of human EKVX cells; type: functional
[60] = test system: NCI-H322M; test: Growth inhibition of human NCI-H322M cells; type: functional
[61] = test system: HCT-116; test: Growth inhibition of human HCT116 cells; type: functional
[62] = test system: SN12C; test: Growth inhibition of human SN12C cells; type: functional
[63] = Growth inhibition of human UACC257 cells; type: functional; conditions: UACC-257
[64] = Growth inhibition of human LOXIMVI cells; type: functional; conditions: LOX IMVI
[65] = test system: A549; test: Growth inhibition of human A549/ATCC cells; type: functional
[66] = test system: K562; test: Growth inhibition of human K562 cells; type: functional
[67] = test system: NCI-H460; test: Growth inhibition of human NCI-H460 cells; type: functional
[68] = test system: HT-29; test: Growth inhibition of human HT-29 cells; type: functional
[69] = test system: NCI-H226; test: Growth inhibition of human NCI-H226 cells; type: functional
[70] = Growth inhibition of human OVCAR3 cells; type: functional; conditions: OVCAR-3

SMILES: COc1cc2c(cc1O)N=C[C@@H]1CCCN1C2=O
- GI50 [1]: 170 nM
- Activity [2]: 63.79%
- GI50 [3]: 2340 nM
- GI50 [4]: 110 nM
- Activity [5]: 12.2%
- Activity [6]: 67.74%
- GI50 [7]: 200 nM
- GI50 [8]: 150 nM
- Activity [9]: 20.07%
- GI50 [10]: 170 nM
- GI50 [11]: 160 nM
- Activity [12]: 3.95%
- GI50 [13]: 140 nM
- GI50 [14]: 170 nM
- GI50 [15]: 170 nM

SMILES: COc1cc2c(cc1OCCCCCn1c3ccccc3c3ccccc31)N=C[C@@H]1CCCN1C2=O
- GI50 [16]: 2790 nM
- GI50 [17]: 2150 nM
- GI50 [18]: 2200 nM
- GI50 [19]: 4340 nM
- GI50 [20]: 1850 nM
- GI50 [21]: 2420 nM
- GI50 [22]: 4570 nM
- GI50 [23]: 2100 nM
- GI50 [24]: 1670 nM
- GI50 [1]: 1680 nM
- GI50 [25]: 1970 nM
- Activity [2]: 68.24%
- GI50 [26]: 1050 nM
- GI50 [27]: 2030 nM
- GI50 [28]: 1540 nM
- GI50 [29]: 1850 nM
- GI50 [3]: 1760 nM
- GI50 [30]: 2050 nM
- GI50 [31]: 2250 nM
- GI50 [4]: 1640 nM
- Activity [5]: 13.03%
- GI50 [32]: 1520 nM
- GI50 [33]: 2080 nM
- ΔTm [34]: 4.9 °C
- GI50 [35]: 1710 nM
- GI50 [36]: 1720 nM
- GI50 [37]: 1670 nM
- GI50 [38]: 1730 nM
- GI50 [39]: 1650 nM
- GI50 [40]: 1720 nM
- Activity [6]: 71.69%
- GI50 [41]: 2550 nM
- GI50 [42]: 1730 nM
- GI50 [43]: 1910 nM
- GI50 [44]: 2690 nM
- GI50 [45]: 1740 nM
- GI50 [46]: 3090 nM
- GI50 [47]: 1730 nM
- GI50 [7]: 2300 nM
- GI50 [8]: 1800 nM
- GI50 [48]: 2140 nM
- GI50 [49]: 1800 nM
- GI50 [50]: 1970 nM
- GI50 [51]: 1930 nM
- GI50 [52]: 2260 nM
- GI50 [53]: 1310 nM
- GI50 [54]: 1590 nM
- Activity [9]: 15.38%
- GI50 [10]: 1640 nM
- GI50 [11]: 1420 nM
- Activity [12]: 3.45%
- GI50 [55]: 2230 nM
- GI50 [56]: 1770 nM
- GI50 [57]: 1860 nM
- GI50 [58]: 1960 nM
- GI50 [59]: 5270 nM
- GI50 [60]: 3830 nM
- GI50 [61]: 1650 nM
- GI50 [62]: 1940 nM
- GI50 [63]: 2290 nM
- GI50 [64]: 2080 nM
- GI50 [65]: 1570 nM
- GI50 [13]: 1320 nM
- GI50 [66]: 2600 nM
- GI50 [67]: 1960 nM
- GI50 [68]: 2080 nM
- GI50 [69]: 2490 nM
- GI50 [14]: 1800 nM
- GI50 [15]: 1610 nM
- GI50 [70]: 1880 nM

SMILES: COc1ccc(-c2ccc3c(c2)c2cc(-c4ccc(OC)cc4)ccc2n3CCCCOc2cc3c(cc2OC)C(=O)N2CCC[C@H]2C=N3)cc1
- GI50 [1]: 170 nM
- Activity [2]: 62.6%
- GI50 [4]: 190 nM
- Activity [5]: 11.12%
- ΔTm [34]: 4.3 °C
- Activity [6]: 67%
- GI50 [7]: 160 nM
- GI50 [8]: 140 nM
- Activity [9]: 21.88%
- GI50 [10]: 150 nM
- GI50 [11]: 190 nM
- Activity [12]: 4.4%
- GI50 [13]: 160 nM
- GI50 [14]: 190 nM
